Experimental data from patent US9999619B2, “Piperidin-4-yl azetidine derivatives as JAK1 inhibitors” (Incyte Corporation, priority 2010, dated 2018).
Counter-ions that a name gives are not always drawn.

What was measured:
Type in all cases: biochemical
[1] = target: human JAK1 (a.a. 837-1142) (Homo sapiens, UniProt P23458); assay: In vitro JAK kinase assay (HTRF, phosphorylation of a biotinylated peptide), JAK1; conditions: measured at 1 mM ATP
In short: (§1)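 N-terminally His-tagged catalytic domains, baculovirus-expressed in insect cells and purified, were used as enzyme. Reactions ran 1 hr at room temperature and were stopped with a mix of 45 mM EDTA, 300 nM SA-APC and 6 nM Eu-Py20. The HTRF signal was read after 40 min of antibody binding.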

[2] = target: human JAK1 (a.a. 837-1142); assay: as above; conditions: ratio of JAK2 IC50 to JAK1 IC50, measured at 1 mM ATP
In short: as §1

[3] = target: Jak2 (a.a. 828-1132) (Homo sapiens (Human), UniProt O60674); assay: In vitro JAK kinase assay (HTRF, phosphorylation of a biotinylated peptide), JAK2; conditions: measured at 1 mM ATP
In short: as §1

Chain of Jak2 (a.a. 828-1132) (O60674 828-1132): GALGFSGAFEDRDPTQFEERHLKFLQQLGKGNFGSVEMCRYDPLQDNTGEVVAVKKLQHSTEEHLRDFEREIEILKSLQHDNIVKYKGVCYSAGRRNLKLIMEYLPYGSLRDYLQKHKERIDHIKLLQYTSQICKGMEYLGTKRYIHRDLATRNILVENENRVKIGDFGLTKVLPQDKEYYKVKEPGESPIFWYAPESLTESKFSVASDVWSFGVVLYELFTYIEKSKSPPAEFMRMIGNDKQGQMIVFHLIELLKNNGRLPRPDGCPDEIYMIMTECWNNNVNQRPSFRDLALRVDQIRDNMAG

SMILES	IC50 [1]	IC50 Ratio JAK2/JAK1 [2]	IC50 [3]
N#CCC1(n2cc(-c3ncnc4[nH]ccc34)cn2)CN(C2CCN(C(=O)c3cc(C(F)(F)F)ncc3F)CC2)C1 [Example 343, {1-{1-[5-Fluoro-2-(trifluoromethyl)isonicotinoyl]piperidin-4-yl}-3-[4-(7H-pyrrolo[2,3-d]pyrimidin-4-yl)-1H-pyrazol-1-yl]azetidin-3-yl}acetonitrile]	5 to 20 nM	5.5	50 to 100 nM
N#CCC1(n2cc(-c3ncnc4[nH]ccc34)cn2)CN(C2CCN(C(=O)c3nc(C(F)(F)F)cs3)CC2)C1 [Example 344, [3-[4-(7H-Pyrrolo[2,3-d]pyrimidin-4-yl)-1H-pyrazol-1-yl]-1-(1-{[4-(trifluoromethyl)-1,3-thiazol-2-yl]carbonyl}piperidin-4-yl)azetidin-3-yl]acetonitrile]	≤ 5 nM	18.9	50 to 100 nM
N#CCC1(n2ccc(-c3ncnc4[nH]ccc34)c2)CN(C2CCN(C(=O)c3nc(C(F)(F)F)cs3)CC2)C1 [Example 346, [3-[3-(7H-Pyrrolo[2,3-d]pyrimidin-4-yl)-1H-pyrrol-1-yl]-1-(1-{[4-(trifluoromethyl)-1,3-thiazol-2-yl]carbonyl}piperidin-4-yl)azetidin-3-yl]acetonitrile]	≤ 5 nM	5.9	10 to 50 nM
CS(=O)(=O)N1CCC(N2CC(CC#N)(n3ccc(-c4ncnc5[nH]ccc45)c3)C2)CC1 [Example 348, {1-[1-(Methylsulfonyl)piperidin-4-yl]-3-[3-(7H-pyrrolo[2,3-d]pyrimidin-4-yl)-1H-pyrrol-1-yl]azetidin-3-yl}acetonitrile]	≤ 5 nM	3.2	10 to 50 nM
N#CCC1(n2cc(-c3ccnc4[nH]ccc34)cn2)CN(C2CCN(C(=O)c3nc(C(F)(F)F)cs3)CC2)C1 [Example 350]	5 to 20 nM	15.0	> 100 nM
N#CCC1(n2cc(-c3c(F)cnc4[nH]ccc34)cn2)CN(C2CCN(C(=O)c3cncc(C(F)(F)F)n3)CC2)C1 [Example 352, [3-[4-(5-Fluoro-1H-pyrrolo[2,3-b]pyridin-4-yl)-1H-pyrazol-1-yl]-1-(1-{[6-(trifluoromethyl)pyrazin-2-yl]carbonyl}piperidin-4-yl)azetidin-3-yl]acetonitrile]	≤ 5 nM	18.8	10 to 50 nM
CS(=O)(=O)N1CCC(N2CC(CC#N)(n3cc(-c4c(F)cnc5[nH]ccc45)cn3)C2)CC1 [Example 355, {3-[4-(5-Fluoro-1H-pyrrolo[2,3-b]pyridin-4-yl)-1H-pyrazol-1-yl]-1-[1-(methylsulfonyl)piperidin-4-yl]azetidin-3-yl}acetonitrile]	≤ 5 nM	3.1	≤ 10 nM
N#CCC1(n2cc(-c3c(C#N)cnc4[nH]ccc34)cn2)CN(C2CCN(C(=O)c3cc(C(F)(F)F)ncc3F)CC2)C1 [Example 356, 4-[1-(3-(Cyanomethyl)-1-{1-[5-fluoro-2-(trifluoromethyl)isonicotinoyl]piperidin-4-yl}azetidin-3-yl)-1H-pyrazol-4-yl]-1H-pyrrolo[2,3-b]pyridine-5-carbonitrile]	5 to 20 nM	5.8	50 to 100 nM
CS(=O)(=O)N1CCC(N2CC(CC#N)(n3cc(-c4c(C#N)cnc5[nH]ccc45)cn3)C2)CC1 [Example 357, 4-(1-{3-(Cyanomethyl)-1-[1-(methylsulfonyl)piperidin-4-yl]azetidin-3-yl}-1H-pyrazol-4-yl)-1H-pyrrolo[2,3-b]pyridine-5-carbonitrile]	≤ 5 nM	3.8	10 to 50 nM
CC(C)NC(=O)N1CCC(N2CC(CC#N)(n3cc(-c4ncnc5[nH]ccc45)cn3)C2)CC1 [Example 367, 4-{3-(cyanomethyl)-3-[4-(7H-pyrrolo[2,3-d]pyrimidin-4-yl)-1H-pyrazol-1-yl]azetidin-1-yl}-N-isopropylpiperidine-1-carboxamide]	≤ 5 nM	33.8	10 to 50 nM
CN(C)Cc1cc(C#N)cc(C(=O)N2CCC(N3CC(CC#N)(n4cc(-c5ncnc6[nH]ccc56)cn4)C3)CC2)c1 [Example 369, 3-[(4-{3-(cyanomethyl)-3-[4-(7H-pyrrolo[2,3-d]pyrimidin-4-yl)-1H-pyrazol-1-yl]azetidin-1-yl}piperidin-1-yl)carbonyl]-5-[(dimethylamino)methyl]benzonitrile]	≤ 5 nM	43.8	> 100 nM
CNCc1cc(C(=O)N2CCC(N3CC(CC#N)(n4cc(-c5ncnc6[nH]ccc56)cn4)C3)CC2)nc(C(F)(F)F)n1 [Example 371, {1-(1-{[6-[(methylamino)methyl]-2-(trifluoromethyl)pyrimidin-4-yl]carbonyl}piperidin-4-yl)-3-[4-(7H-pyrrolo[2,3-d]pyrimidin-4-yl)-1H-pyrazol-1-yl]azetidin-3-yl}acetonitrile trifluoroacetate salt]	≤ 5 nM	65.3	50 to 100 nM

Second part, the compound after the results:

IC50 [1]	IC50 Ratio JAK2/JAK1 [2]	IC50 [3]	SMILES
5 to 20 nM	3.2	50 to 100 nM	N#CCC1(n2cc(-c3c(C#N)cnc4[nH]ccc34)cn2)CN(C2CCN(C(=O)c3cc(C(F)(F)F)ncc3Cl)CC2)C1 [Example 341, 4-{1-[1-{1-[5-chloro-2-(trifluoromethyl)isonicotinoyl]piperidin-4-yl}-3-(cyanomethyl)azetidin-3-yl]-1H-pyrazol-4-yl}-1H-pyrrolo[2,3-b]pyridine-5-carbonitrile]
≤ 5 nM	5.7	10 to 50 nM	N#CCC1(n2cc(-c3ncnc4[nH]ccc34)cn2)CN(C2CCN(C(=O)c3cc(C(F)(F)F)ncc3Cl)CC2)C1 [Example 342, {1-{1-[5-Chloro-2-(trifluoromethyl)isonicotinoyl]piperidin-4-yl}-3-[4-(7H-pyrrolo[2,3-d]pyrimidin-4-yl)-1H-pyrazol-1-yl]azetidin-3-yl}acetonitrile]
5 to 20 nM	11.9	50 to 100 nM	N#CCC1(n2ccc(-c3ncnc4[nH]ccc34)c2)CN(C2CCN(C(=O)c3ccnc(C(F)(F)F)n3)CC2)C1 [Example 345, [3-[3-(7H-Pyrrolo[2,3-d]pyrimidin-4-yl)-1H-pyrrol-1-yl]-1-(1-{[2-(trifluoromethyl)pyrimidin-4-yl]carbonyl}piperidin-4-yl)azetidin-3-yl]acetonitrile]
5 to 20 nM	2.7	10 to 50 nM	N#CCC1(n2ccc(-c3ncnc4[nH]ccc34)c2)CN(C2CCN(C(=O)c3cnc(C(F)(F)F)cn3)CC2)C1 [Example 347, [3-[3-(7H-Pyrrolo[2,3-d]pyrimidin-4-yl)-1H-pyrrol-1-yl]-1-(1-{[5-(trifluoromethyl)pyrazin-2-yl]carbonyl}piperidin-4-yl)azetidin-3-yl]acetonitrile]
≤ 5 nM	3.8	10 to 50 nM	CS(=O)(=O)N1CCC(N2CC(CC#N)(n3cc(-c4ccnc5[nH]ccc45)cn3)C2)CC1 [Example 351, {1-[1-(Methylsulfonyl)piperidin-4-yl]-3-[4-(1H-pyrrolo[2,3-b]pyridin-4-yl)-1H-pyrazol-1-yl]azetidin-3-yl}acetonitrile]
5 to 20 nM	5.0	10 to 50 nM	N#CCC1(n2cc(-c3c(F)cnc4[nH]ccc34)cn2)CN(C2CCN(C(=O)c3ccnc(C(F)(F)F)n3)CC2)C1 [Example 353, [3-[4-(5-Fluoro-1H-pyrrolo[2,3-b]pyridin-4-yl)-1H-pyrazol-1-yl]-1-(1-{[2-(trifluoromethyl)pyrimidin-4-yl]carbonyl}piperidin-4-yl)azetidin-3-yl]acetonitrile]
5 to 20 nM	2.1	10 to 50 nM	N#CCC1(n2cc(-c3c(F)cnc4[nH]ccc34)cn2)CN(C2CCN(C(=O)c3cnc(C(F)(F)F)cn3)CC2)C1 [Example 354, [3-[4-(5-Fluoro-1H-pyrrolo[2,3-b]pyridin-4-yl)-1H-pyrazol-1-yl]-1-(1-{[5-(trifluoromethyl)pyrazin-2-yl]carbonyl}piperidin-4-yl)azetidin-3-yl]acetonitrile]
≤ 5 nM	15.5	10 to 50 nM	N#CCC1(n2cc(-c3ncnc4[nH]ccc34)cn2)CN(C2C3COCC2CN(C(=O)c2ccnc(C(F)(F)F)c2F)C3)C1 (stereo not drawn) [Example 365, {1-{7-[3-Fluoro-2-(trifluoromethyl)isonicotinoyl]-3-oxa-7-azabicyclo[3.3.1]non-9-yl}-3-[4-(7H-pyrrolo[2,3-d]pyrimidin-4-yl)-1H-pyrazol-1-yl]azetidin-3-yl}acetonitrile]
≤ 5 nM	54.2	10 to 50 nM	CN(C)Cc1cc(C(=O)N2CCC(N3CC(CC#N)(n4cc(-c5ncnc6[nH]ccc56)cn4)C3)CC2)c(F)c(C(F)(F)F)n1 [Example 368, {1-{1-[6-[(dimethylamino)methyl]-3-fluoro-2-(trifluoromethyl)isonicotinoyl]piperidin-4-yl}-3-[4-(7H-pyrrolo[2,3-d]pyrimidin-4-yl)-1H-pyrazol-1-yl]azetidin-3-yl}acetonitrile]
≤ 5 nM	55	50 to 100 nM	CN(C)Cc1cc(C(=O)N2CCC(N3CC(CC#N)(n4cc(-c5ncnc6[nH]ccc56)cn4)C3)CC2)nc(C(F)(F)F)n1 [Example 370, {1-(1-{[6-[(dimethylamino)methyl]-2-(trifluoromethyl)pyrimidin-4-yl]carbonyl}piperidin-4-yl)-3-[4-(7H-pyrrolo[2,3-d]pyrimidin-4-yl)-1H-pyrazol-1-yl]azetidin-3-yl}acetonitrile]
